Assay results as given in patent US20040116348A1, “Polymer-linker-drug conjugates for targeted drug delivery” (priority 2002, published 2004).

Columns and labels:
[1] = Body weight change as indicator of toxic side effects in SCID mice bearing HT-1080 tumors; conditions: 50 mg methotrexate/kg i.p. on day 1, 8 and 15
Procedure: After 7-10 days, tumors of size 150-300 mm^3 were established on each mouse. […] Weight and tumor size were monitored three times a week. Tumor size was calculated as width^2×length×0.52. […] As a second control, another group of mice were injected with phosphate buffered saline. Each group included three mice.

[2] = tested on: HT-1080 tumors; assay: In vivo anti-tumor efficacy in SCID mice bearing HT-1080 tumors; conditions: end of study; 50 mg methotrexate/kg i.p. on day 1, 8 and 15
Procedure: Each group included three mice.
The dosage chosen for these experiments was based on the reported optimum dosage of free methotrexate for treating tumor-bearing mice (Burger et al., Int. J. Cancer 92:718, 2001). Three weekly injections at 50 mg of methotrexate/kg of body weight was half the maximum tolerated dosage. In another set of experiments the dosage was increased to three weekly injections of 100 mg/kg, or to injections of 50 mg/kg twice per week.

[3] = tested on: HT-1080 (a human fibrosarcoma line); assay: MTT cytotoxicity, HT-1080; format: cell-based
Procedure: (§1) Open circles in FIGS. 6A-F represent free doxorubicin and closed circles represent LIG-doxorubicin.
(§2) Cell survival was assayed using an indirect colorimetric […] (MTT assay, e.g., see Alley et al., Cancer Res. 48:589, 1988). The tetrazolium salt MTT is metabolized by NAD-dependent dehydrogenase to form a colored reaction product and the amount of dye formed directly correlates with the number of viable cells. The formula for calculating % survival is given by:
(§3) %survival=(Ti−Tz)/(C−Tz) if Ti≧Tz or
(§4) %survival=(Ti−Tz)/Tz if Ti<Tz
(§5) where Ti=Net MTT reading of test growth in the presence of drugs; Tz=Net MTT reading at time zero with respect to the drug test; and C=Net MTT reading of control growth (see Grever et al., Seminars in Oncology, 19:622, 1992 and Boyd and Paull, Drug Development Research 34:91, 1995).
(§6) The cytotoxicity of methotrexate and various peptidyl-methotrexates were compared in order to assess bulk tolerance. The peptidyl-methotrexates were prepared by linking short peptides of three to four amino acids to methotrexate. […] Methotrexate was covalently coupled to the N-terminal end of the peptides via the γ-carboxyl of its glutamic acid (Nagy et al., Proc. Nat. Acad. Sci. USA 90:6373, 1993). […] Cytotoxicity was assayed as described above in Example 4. […] Example 8 describes the synthesis of certain dextran-oligopeptide-methotrexate conjugates.

[4] = tested on: BT-20 (a human breast carcinoma line); assay: MTT cytotoxicity, BT-20; format: cell-based
Procedure: as §1, §2, §3, §4, §5, §6

[5] = tested on: human tumor cell lines; assay: MTT cytotoxicity, overall statement over the panel of human tumor cell lines; format: cell-based; conditions: three human tumor cell lines
Procedure: as §2, with “by: […]” for “by:”

[6] = tested on: RT-112 (human urinary bladder transitional carcinoma line); assay: MTT cytotoxicity, RT-112; format: cell-based
Procedure: as §2, §3, §4, §5
The cytotoxicity of methotrexate and various peptidyl-methotrexates were compared in order to assess bulk tolerance. The peptidyl-methotrexates were prepared by linking short peptides of three to four amino acids to methotrexate. The peptides were chosen to represent appropriate cleavage fragments from the MMP-2 sensitive substrate peptide IPVGLIG that was characterized in Examples 1-2. Methotrexate was covalently coupled to the N-terminal end of the peptides via the γ-carboxyl of its glutamic acid (Nagy et al., Proc. Nat. Acad. Sci. USA 90:6373, 1993). […]

[7] = tested on: PC-3 (a human prostate tumor cell line); assay: MTT cytotoxicity, PC-3; format: cell-based
Procedure: as §1, §2, §3, §4, §5

[8] = tested on: MGH-U1 (a human bladder cell line); assay: MTT cytotoxicity, MGH-U1; format: cell-based
Procedure: as §1, §2, §3, §4, §5

[9] = tested on: KK-47 (a human bladder tumor cell line); assay: MTT cytotoxicity, KK-47; format: cell-based
Procedure: as §1, §2, §3, §4, §5

[10] = tested on: U-87 (a human glioblastoma cell line); assay: MTT cytotoxicity, U-87; format: cell-based
Procedure: as §1, §2, §3, §4, §5

| Structure (SMILES) | body weight drop compared to initial weight [1] | tumor growth suppression compared to saline control [2] | cytotoxicity (% survival, MTT) [3] | cytotoxicity (% survival, MTT) [4] | cytotoxicity relative to free methotrexate [5] | cytotoxicity (% survival, MTT) [6] | cytotoxicity (% survival, MTT) [7] | cytotoxicity (% survival, MTT) [8] | cytotoxicity (% survival, MTT) [9] | cytotoxicity (% survival, MTT) [10] |
| --- | --- | --- | --- | --- | --- | --- | --- | --- | --- | --- |
| CN(Cc1cnc2nc(N)nc(N)c2n1)c1ccc(C(=O)N[C@@H](CCC(=O)O)C(=O)O)cc1 [methotrexate] | 13% | 48% | – | – | – | – | – | – | – | – |
| CC(C)[C@H](NC(=O)[C@@H]1CCCN1C(=O)CC[C@H](NC(=O)c1ccc(N(C)Cc2cnc3nc(N)nc(N)c3n2)cc1)C(=O)O)C(=O)NCC(=O)O [methotrexate-PVG] | – | – | cytotoxic | cytotoxic | comparable | cytotoxic | – | – | – | – |
| CC[C@H](C)[C@H](NC(=O)[C@@H](N)CC(C)C)C(=O)NCC(=O)N[C@H]1C[C@H](O[C@H]2C[C@](O)(C(=O)CO)Cc3c(O)c4c(c(O)c32)C(=O)c2c(OC)cccc2C4=O)O[C@@H](C)[C@H]1O [LIG-doxorubicin] | – | – | cytotoxic | cytotoxic | – | – | cytotoxic | cytotoxic | cytotoxic | cytotoxic |
